2 compounds from US10369123B2, “Perk activator for the treatment of neurodegenerative diseases” (DEUTSCHES ZENTRUM FÜR NEURODEGENERATIVE ERKRANKUNGEN E.V. …, priority 2014, dated 2019) can be followed below.

What all share (format): cell-based, human
Series [1] concerns 4R-tau and 3R-tau isoforms. Nature of the series: Western blot of 3R-/4R-tau isoforms, annonacin model. The following applies: annonacin 25 nM, 48 h. How it is done: Nunc™ Nunclon™ Delta 6-well (for protein and mRNA) or 48-well (for cell assays) plates (Thermo Fisher Scientific, Waltham, Mass., USA) were coated with 100 μg/ml poly-L-lysine (Sigma-Aldrich, St. Louis, Mo., USA) and 5 μg/ml fibronectin (Sigma-Aldrich). LUHMES (Lund Human Mesencephalic) cells, derived from human embryonic ventral mesencephalic cells by conditional immortalization (Tet-off v-myc over-expression) were seeded out in a concentration of 130,000 cells/cm^2 to achieve a confluence of 50%. They were then differentiated for 8 days in a medium of DMEM/F12 (Sigma-Aldrich), 1 μg/ml tetracycline, […] and 490 μg/ml dbcAMP into post-mitotic neurons with a dopaminergic phenotype (Lotharius et al. 2005). […]
Protein was extracted by scraping the cells from the culture plate with Mammalian Protein Extraction Reagent (M-PER, Thermo Fisher Scientific) and 1× cOmplete Protease Inhibitor Cocktail Tablets (Hoffmann-La Roche, Basel, Switzerland) and 1× PhosSTOP Phosphatase Inhibitor Cocktail Tablets (Hoffmann-La Roche). […] Protein concentrations were determined using the BCA kit (Thermo Fisher Scientific) by heating the samples at 60° C. for 30 min and measuring the absorption on the NanoDrop 2000c Spectrophotometer (Thermo Fisher Scientific). […]

Series [2] deals with unfolded protein response (PERK, EIF2A). Nature of the series: Western blot of UPR proteins in differentiated LUHMES neurons. The following applies: 48 h; for phosphorylated EIF2A (pEIF2A) protein / phosphorylated PERK (pPERK) protein: thapsigargin 30 nM or annonacin 25 nM. The protocol: (§1) Nunc™ Nunclon™ Delta 6-well (for protein and mRNA) or 48-well (for cell assays) plates (Thermo Fisher Scientific, Waltham, Mass., USA) were coated with 100 μg/ml poly-L-lysine (Sigma-Aldrich, St. Louis, Mo., USA) and 5 μg/ml fibronectin (Sigma-Aldrich). LUHMES (Lund Human Mesencephalic) cells, derived from human embryonic ventral mesencephalic cells by conditional immortalization (Tet-off v-myc over-expression) were seeded out in a concentration of 130,000 cells/cm^2 to achieve a confluence of 50%. They were then differentiated for 8 days in a medium of DMEM/F12 (Sigma-Aldrich), 1 μg/ml tetracycline, […] and 490 μg/ml dbcAMP into post-mitotic neurons with a dopaminergic phenotype (Lotharius et al. 2005).
(§2) For all experiments with annonacin, the medium was replaced during the intoxication period with new medium containing glucose levels reduced to 250 μM, i.e. the physiological concentration in the human brain.
(§3) Protein was extracted by scraping the cells from the culture plate with Mammalian Protein Extraction Reagent (M-PER, Thermo Fisher Scientific) and 1× cOmplete Protease Inhibitor Cocktail Tablets (Hoffmann-La Roche, Basel, Switzerland) and 1× PhosSTOP Phosphatase Inhibitor Cocktail Tablets (Hoffmann-La Roche). For pNRF2 blots, cells were extracted with 2% SDS tris-buffer instead of M-PER in order to obtain whole cell extracts and not to lose the nuclear fraction. The protein solution was frozen at −80° C., immediately after retrieval, for a minimum of two hours. The solution was then thawed on ice, vortexed, centrifuged at 5000 g for 15 min at 4° C. and the supernatant retrieved. Protein concentrations were determined using the BCA kit (Thermo Fisher Scientific) by heating the samples at 60° C. for 30 min and measuring the absorption on the NanoDrop 2000c Spectrophotometer (Thermo Fisher Scientific).
200 μg of protein were diluted to equal concentrations with M-PER lysis buffer (Thermo Fisher Scientific) up to 270 μl. The PERK D11A8 antibody (Cell Signaling Technology, Beverly, Mass., USA) was added to a concentration of 1:100 and allowed to bind the antigen for one hour in a rotating 1.5 ml microcentrifuge tube. Then 30 μl of protein sepharose A beads (Sigma-Aldrich, 3 mg per ml) were added to each tube and left rotating overnight at 4° C. The tubes were then centrifuged at 10,000 g for 3 minutes and the supernatant was discarded. The beads were washed in M-PER three times. Each time the beads were centrifuged and the supernatant was extracted with a Hamilton Syringe (Hamilton, Bonaduz, Switzerland) and discarded. The beads were then mixed with 15 μl 1× Roti®-Load 1 (Carl Roth) and heated at 95° C. for 5 minutes. After another centrifugation step of 10,000 g for 1 minute the supernatant was loaded onto a gel with the Hamilton syringe and then blotted as described below.
(§4) 20 μg of protein (unless indicated otherwise) were adjusted to equal concentrations between samples by dilution with M-PER and subsequently heated at 95° C. for 5 minutes with Roti®-Load 1 (Carl Roth). SDS-PAGE was performed using Any kD™ Mini-PROTEAN® TGX™ Gels (BioRad, Berkeley, Calif., USA) in a tris-glycine running buffer. The protein was blotted onto PVDF membrane (BioRad) at 70 V for 65 minutes on ice. The membrane was blocked with 1× Roti®-Block solution (Carl Roth) for 1 h and then incubated at 4° C. overnight under gentle shaking with the primary antibody (see Table 5) in TBS with 5% BSA (Cell Signaling Technology) and 0.05% TWEEN (Sigma-Aldrich).
The membranes were then washed and incubated with the species specific HRP-bound secondary antibody (Vector Laboratories, Burlingame, Calif., USA) at 1:2500 in 1× Roti®-Block solution for 2 h, followed by further washing and exposure to Clarity Western ECL Substrate (BioRad) or, in the case of MC1 and 4R-tau, to Amersham™ ECL™ Prime (GE Healthcare). […]

In a further series the test system is tau. The experiment in a line: Western blot of tau conformation and phosphorylation, annonacin model. The following applies: annonacin 25 nM, 48 h. How it is done:
as §1, §2, §3, §4
The membranes were then washed and incubated with the species specific HRP-bound secondary antibody (Vector Laboratories, Burlingame, Calif., USA) at 1:2500 in 1× Roti®-Block solution for 2 h, followed by further washing and exposure to Clarity Western ECL Substrate (BioRad) or, in the case of MC1 and 4R-tau, to Amersham™ ECL™ Prime (GE Healthcare). Chemiluminescence was detected with the Gel Doc™ XR System (BioRad) and analyzed with Image Lab™ software (BioRad), followed by graphical and statistical analysis with Prism 6 (GraphPad Software).

For series [3], the system named is LUHMES neurons. The experiment in a line: Morphological inspection and counts of viable cells. The following applies: annonacin 25 nM, 48 h. The protocol: as §1, §2
The protection by the PERK activator against annonacin and 4R-tau protein overexpression was also evident on morphological inspection of the cells. […] Lentiviral 4R-tau overexpression had similar effects. […] Cell counts of viable cells with intact nuclear and somatic morphology were counted in randomly selected 1300×1000 sized areas in 4 biological replicates each, confirming the protective effects of Pa.

Series [4] has as its system LUHMES neurons. Nature of the series: MTT assay, annonacin-treated LUHMES neurons. The following applies: annonacin alone, different concentrations, 48 h. The protocol: as §1, §2
Thiazolyl Blue Tetrazolium […] (MTT) (Sigma Aldrich) was dissolved in sterile PBS to a concentration of 5 mg/ml. This stock solution was added to the cells in culture medium to achieve a final concentration of 0.5 mg/ml. The 48-well culture plate was then incubated at 37° C. for 1 h, the medium removed completely and frozen at −80° C. for 1 h. The plate was then thawed, 300 μl DMSO (AppliChem, Darmstadt, Germany) was added per well and the plate was shaken to ensure complete dissolution of the violet crystals. 100 μl from each well were transferred to a new 96-well plate and the absorbance was read with the FLUOstar Omega (BMG Labtech) platereader at a wavelength of 590 nm (reference wave length 630 nm). The data was analyzed using the MARS Data Analysis Software (BMG Labtech) and Prism 6.

Series [5] has as its system EIF2AK3, EIF2A and ATF4 mRNA. Nature of the series: Quantitative PCR of UPR genes in differentiated LUHMES neurons. The following applies: 48 h; for ATF4 mRNA expression: thapsigargin 30 nM or annonacin 25 nM. How it is done:
as §1, §2
(§5) RNA from human tissue samples was extracted by grinding the tissue in liquid nitrogen to a powder and then dissolving it in the RA1 buffer supplied as part of the NucleoSpin® RNA (Macherey Nagel) RNA extraction kit+1% (v/v) 2-mercaptoethanol (Sigma-Aldrich). RNA from cells was extracted by scraping the cells from the culture plate with RA1 buffer+1% (v/v) 2-mercaptoethanol. The remaining extraction procedure was according to the manufacturer's instructions for the NucleoSpin® RNA kit. RNA concentrations were determined using the NanoDrop 2000c Spectrophotometer. The RNA was then transcribed into cDNA with the iScript™ cDNA Synthesis Kit (BioRad) using the manufacturer's instructions. Real-Time PCR was performed on the Applied Biosystems® StepOnePlus™ (Life Technologies) system using TagMan® Universal Master Mix II and TaqMan® primers against total MAPT, MAPT 3R, MAPT 4R, EIF2A, EI2AK3 and ATF4. POL2A and PSCM1 served as reference targets as they were determined to be the most stably expressed across experimental conditions. The results were analyzed using the StepOne Plus software (Life Technologies) and Qbase software (Biogazelle) and were then graphically and statistically analyzed with Prism 6 (GraphPad Software). Absolute quantification was performed by creating a standard curve with plasmids containing either the 2N3R or the 2N4R spliced variant of MAPT (see Table 2). The absolute quantity was computed by deriving the relationship between CT values and absolute quantity with the StepOne Plus software.

Series [6] concerns LUHMES neurons. The experiment in a line: ATP assay, annonacin-treated LUHMES neurons. The following applies: annonacin alone, different concentrations, 48 h. The protocol: as §1, §2
ATP assays were conducted using the ViaLight™ plus kit by Lonza according to the manufacturer's instructions. Luminescence was read with the FLUOstar Omega (BMG Labtech) platereader. The data was analyzed using the MARS Data Analysis Software (BMG Labtech) and Prism 6.

Series [7] concerns 3R/4R MAPT mRNA, splicing factor SRSF2. The experiment in a line: Quantitative PCR of MAPT isoforms and splicing factors, annonacin model. The following applies: annonacin. The protocol:
as §1, §2, §5

For `CCCCCCCCCCCC[C@@H](O)[C@H]1CC[C@H]([C@H](O)CCCC[C@H](O)CCCCC[C@@H](O)CC2=CC(C)OC2=O)O1` (stereo partly shown) [annonacin], the 4R-tau protein level result in series [1] is given as “increase”. For the same compound, in series [2] (annonacin 25 nM, vs untreated), the “total EIF2A protein” value is recorded as “reduced” and the “total PERK protein” value is on record as “reduced”. For the same compound, in series [2] (vs untreated), the “phosphorylated EIF2A (pEIF2A) protein” value is given as “reduced” and the “phosphorylated PERK (pPERK) protein” value is “increased”. In the series on tau, the “total tau protein (HT7)” value is “not altered”. In addition, in the series with tau (vs control), the “AD2 (p-Ser-396 and 404) tau phosphorylation” value is recorded as “significantly increased”; the “CP13 (p-Ser-202) tau phosphorylation” value was “significantly increased”; the “MC1 pathological tau conformation” value was “increased”. Moreover, in the series with LUHMES neurons [3], the “condensation of DNA to chromatin clumps” value is reported as “led to the condensation of DNA to chromatin clumps” and the “density of the dendritic network” value is “reduced”. In addition, the MTT signal entry with LUHMES neurons [4] was “concentration-dependent decline”. Besides, the “EIF2A mRNA expression” value in series [5] (annonacin 25 nM) is reported as “upregulated”. In addition, in series [5], the “ATF4 mRNA expression” value is recorded as “upregulated”. The ATP concentration result with LUHMES neurons [6] is “concentration-dependent decline”. Further, in series [7], the “splicing factor SRSF2 mRNA” value is on record as “significantly increase”. Further, in series [7] (48 h), the “4R-tau mRNA level” value was “increase”.
On to `C/C=C(/C)C(=O)O[C@H]1C(C)=C2[C@H]([C@@H]1OC(=O)CCCCCCC)[C@@](C)(OC(C)=O)C[C@H](OC(=O)CCC)[C@@]1(O)[C@H]2OC(=O)[C@@]1(C)O` [thapsigargin], for which the pPERK/PERK ratio entry in series [2] (thapsigargin 30 nM) is “significantly increased”. Moreover, in series [2] (vs untreated), the “phosphorylated EIF2A (pEIF2A) protein” value was “increased phosphorylation” and the “phosphorylated PERK (pPERK) protein” value is reported as “increased phosphorylation”. Moreover, the “EIF2AK3 mRNA expression” value in series [5] (thapsigargin 30 nM) is “increased expression”. The “ATF4 mRNA expression” value in series [5] is “increased expression”.
